Where two headings read alike, the source gives them in different places.
Tests used:
[1] = Toxicity, survival time after im injection in DMSO; format: in vivo, mice
From the text: The following represents initial test observations for one of the above identified compounds.
Table of Toxicity Data for
1,5-bis(thiophenyl)-2-nitrobenzene* (2e)
Animal** (mg/kg im DMSO) Time (Days)
**All mice were tail-coded.
***Sacrificed at the end of 14 days.

[2] = format: in vivo, mice; details: 50 mg/kg
From the text: The following table illustrates utility of the compounds of the present invention as weight control agents.
Table of Weight Control Observed
With 1,5-bis(thiophenyl)-2-nitrobenzene
Animal (mg/kg) (grams) Date

[3] = Preliminary toxicity testing of 7-nitro-1-azaphenoxathiin
Experimental: These tests were run simultaneously using chloropromazine as a control. This compound was tested at doses of 50, 100 and 200 mg/kg.

[4] = Strychnine anticonvulsant study; format: in vivo; details: for Average Onset Time: saline control 3.10
From the text: TABLE OF STRYCHNINE ANTICONVULSANT STUDY
WITH 7-NITRO-1-AZAPHENOXATHIIN
Test Group Time (min) Deviation Error
______________________________________

[5] = LD50 studies of 7-chloro-1-azaphenoxathiin; format: in vivo
From the text: Table of LD50 Studies of 7-chloro-1-azaphenoxathiin
Test Animal Survival Time
Group* Dose (mg/kg) (Days)
*All animals were tail-coded
**LD50; dependent on the toleration of the animal for this drug

[6] = Barbital sleeping time potentiation; format: in vivo; details: control 125.4
Experimental: (§1) Further, the action of the drug at 200 mg/kg in the spontaneous motor activity test tends to reverse with greater activity observed (47%). An additional set of data was also acquired for this compound which was barbiturate induced sleeping time potentiation. […] Thus, compounds that may be prepared in accordance with Equation 3 above are: […]
(§2) Table of Barbiturate Sleeping Time Potentiation With
(§3) 7-Chloro-1-Azaphenoxathiin
(§4) Dose (mg/kg) Mean (min) SE (min)
Barbital Sleeping Time Potentiation

[7] = Hexobarbital sleeping time potentiation; format: in vivo; details: control 58.5
Experimental: as §1, §2, §3
Hexobarbital Sleeping Time Potentiation
as §4

[8] = Barbiturate induced sleeping time potentiation; format: in vivo; details: in all cases
Experimental: as §1

[9] = Spontaneous and forced motor activity tests; format: in vivo
Experimental: as §1

[10] = Effect on body temp., heart rate, and respiration in rats; format: in vivo; details: 100 mg/kg i.p.
Experimental: TABLE OF EFFECT OF 7-CHLORO-1-AZAPHENOXATHIIN 100 MG/KG I.P. ON
BODY TEMP., HEART RATE, AND RESPIRATION IN RATS

Compound: O=[N+]([O-])c1ccc(Sc2ccccc2)cc1Sc1ccccc1 [1,5-bis(thiophenyl)-2-nitrobenzene]
- death resulting from decreased CNS activity [1]: death at higher doses
- Weight ([2]; animal #5, 7/16/77): 16.0 grams
- Weight ([2]; animal #5, 7/17/77): 15.8 grams
- Weight ([2]; animal #5, 7/18/77): 16.0 grams
- Weight ([2]; animal #5, 7/19/77): 16.0 grams
- Weight ([2]; animal #5, 7/20/77): 16.0 grams
- Weight ([2]; animal #5, 7/21/77): 16.0 grams

Compound: O=[N+]([O-])c1ccc2c(c1)Oc1cccnc1S2 [7-nitro-1-azaphenoxathiin]
- toxicity [3]: surprisingly low toxicity
- activity as an anticonvulsant [4]: essentially no activity
- Average Onset Time ([4]; 50 mg/kg): 3.21 min
- Average Onset Time ([4]; 100 mg/kg): 3.06 min
- Average Onset Time ([4]; 200 mg/kg): 3.06 min

Compound: Clc1ccc2c(c1)Oc1cccnc1S2 [7-chloro-1-azaphenoxathiin]
- Survival Time ([5]; 50 mg/kg, group 1, 14-day test period): 14 days
- Survival Time ([5]; 100 mg/kg, group 2, 14-day test period): 14 days
- Survival Time ([5]; 250 mg/kg, group 3, 14-day test period): 14 days
- Survival Time ([5]; 500 mg/kg, group 4, 14-day test period): 14 days
- survival of the 14-day test period ([5]; 750 mg/kg): several lived the 14-day test period
- Survival Time ([5]; 750 mg/kg, group 5, LD50, dependent on the toleration of the animal): 0 to 14 days
- Survival Time ([5]; 1,000 mg/kg, group 6): 0 days
- Survival Time ([5]; 1,500 mg/kg, group 7): 0 days
- LD50 ([5]; in vivo): ~750 mg/kg
- tolerability ([5]; test animals): generally well tolerated
- Barbital Sleeping Time, Mean ([6]; 25 mg/kg): 120.6 min
- Barbital Sleeping Time, Mean ([6]; 50 mg/kg): 155.1 min
- Barbital Sleeping Time, Mean ([6]; 100 mg/kg): 179.5 min
- Hexobarbital Sleeping Time, Mean ([7]; 25 mg/kg): 79.8 min
- Hexobarbital Sleeping Time, Mean ([7]; 50 mg/kg, p<0.05): 81.9 min
- Hexobarbital Sleeping Time, Mean ([7]; 100 mg/kg, p<0.05): 104.4 min
- barbiturate induced sleeping times [8]: prolongation of barbiturate induced sleeping times
- greater activity observed in the spontaneous motor activity test ([9]; 200 mg/kg, action tends to reverse): 47%
- potency in both spontaneous and forced motor activity tests ([9]; compared with 7-nitro-1-azaphenoxathiin): somewhat more potent than the former
- H.R. ([10]; time 0, N 5): 331.2 Beats/Min
- Resp ([10]; time 0, N 5): 120.8 Breath/Min
- Temp ([10]; time 0, N 5): 38.5 °C
- H.R. ([10]; time 30, N 4): 314.0 Beats/Min
- H.R. Δ From Veh ([10]; time 30, N 4): -34.0 Beats/Min
- Resp ([10]; time 30, N 4): 101.2 Breath/Min
- Resp Δ From Veh ([10]; time 30, N 4): -33.1 Breath/Min
- Temp ([10]; time 30, N 4): 37.6 °C
- Temp Δ From Veh ([10]; time 30, N 4): -0.4 °C
- H.R. ([10]; time 60, N 4): 288.0 Beats/Min
- H.R. Δ From Veh ([10]; time 60, N 4): -36.0 Beats/Min
- Resp ([10]; time 60, N 4): 79.7 Breath/Min
- Resp Δ From Veh ([10]; time 60, N 4): -65.9 Breath/Min
- Temp ([10]; time 60, N 4): 36.8 °C
- Temp Δ From Veh ([10]; time 60, N 4): -2.4 °C
- H.R. ([10]; time 120, N 4): 273.0 Beats/Min
- H.R. Δ From Veh ([10]; time 120, N 4): -55.0 Beats/Min
- Resp ([10]; time 120, N 4): 70.0 Breath/Min
- Resp Δ From Veh ([10]; time 120, N 4): -49.2 Breath/Min
- Temp ([10]; time 120, N 4): 35.8 °C
- Temp Δ From Veh ([10]; time 120, N 4): -2.4 °C
- H.R. ([10]; time 180, N 4): 270.0 Beats/Min
- H.R. Δ From Veh ([10]; time 180, N 4): -66.0 Beats/Min
- Resp ([10]; time 180, N 4): 78.2 Breath/Min
- Resp Δ From Veh ([10]; time 180, N 4): -41.8 Breath/Min
- Temp ([10]; time 180, N 4): 35.4 °C
- Temp Δ From Veh ([10]; time 180, N 4): -3.4 °C
- H.R. ([10]; time 240, N 4): 289.0 Beats/Min
- H.R. Δ From Veh ([10]; time 240, N 4): -51.0 Beats/Min
- Resp ([10]; time 240, N 4): 82.3 Breath/Min
- Resp Δ From Veh ([10]; time 240, N 4): -33.0 Breath/Min
- Temp ([10]; time 240, N 4): 35.0 °C
- Temp Δ From Veh ([10]; time 240, N 4): -3.6 °C
